Source: US20250084058A1, “PHENYLPYRAZOLE COMPOUND AND APPLICATION THEREOF” (priority 2022, published 2025)
Read-outs that look alike come from different tables or passages of the source.

Tests used:
Type in all cases: in vivo
Mythimna separata = assay: Activity determination of killing Mythimna separata (Airbrush spray, corn leaf segments); details: foliar, dose 1.25 mg/L, 3rd instar larvae, 3rd day after administration, read-out: mortality against Mythimna separata
Method: (§1) The compounds to be tested were dissolved in a mixed solvent of acetone/methanol (1:1) and then diluted to desired concentrations with water containing 0.1% (wt) Tween 80.
(§2) With Mythimna separata and Plutella xylostella as targets, the activity was determined by Airbrush spray method.
Determination method: Corn leaves were cut into leaf segments with the length of 2 cm, the pressure of Airbrush spray treatment is 10 psi (about 0.7 kg/cm^2), and the compounds to be tested were sprayed onto the front and back surfaces of each leaf segment at a liquid amount of 0.5 mL. After drying in the shade, 10 3rd instar larvae were inoculated to each treatment, and each treatment was repeated for 3 times. After the treatment, the larvae were placed in an observation room for culture at 25° C. with relative humidity of 60-70%. On the 3rd day after administration, the number of surviving larvae was investigated, and the mortality was calculated.

Plutella xylostella = assay: Activity determination of killing Plutella xylostella (Airbrush spray, cabbage leaf discs); details: foliar, 3rd day after administration; for mortality at 0.3125 µg/mL: 0.3125 mg/L, read-out: Mortality (%, on 3rd day after administration) 0.3125 mg/L; for mortality at 0.625 µg/mL: 0.625 mg/L, read-out: Mortality (%, on 3rd day after administration) 0.625 mg/L
Method: as §1, §2
Determination method: Cabbage leaves were punched into leaf discs with the diameter of 2 cm by a puncher, the pressure of Airbrush spray treatment is 10 psi (about 0.7 kg/cm^2), and the compounds to be tested were sprayed onto the front and back surfaces of each leaf disc at a liquid amount of 0.5 mL. After drying in the shade, 10 3rd instar larvae were inoculated to each treatment, and each treatment was repeated for 3 times. After the treatment, the larvae were placed in an observation room for culture at 25° C. with relative humidity of 60-70%. On 3rd day after administration, the number of surviving larvae was investigated, and the mortality was calculated.
Some compounds of the present disclosure and control compounds were selected to carry out parallel comparative experiments of the insecticidal activity against Plutella xylostella (on 3rd day after administration), and the determination method was the same as above.

Tetranychus cinnabarinus = assay: Greenhouse acaricidal activity on adult acarids of Tetranychus cinnabarinus (spraying of Phaseolus vulgaris seedlings); details: dose 1.25 mg/L, after 72 h, read-out: mortality against adult acarids of Tetranychus cinnabarinus
Method: According to the solubility of the compounds to be tested, the compounds to be tested were dissolved in acetone or dimethyl sulfoxide and prepared into 50 mL of solutions to be tested at desired concentrations with a 0.1% Tween 80 solution, where the content of the acetone or dimethyl sulfoxide in the solutions was not higher than 10%.
Two true leaves of Phaseolus vulgaris seedlings were taken, and 30-40 adult acarids of Tetranychus cinnabarinus were inoculated. After the cardinal number was investigated, the whole plants were subjected to spraying treatment with a hand-held sprayer, each treatment was repeated for 3 times, and the plants were placed in a standard observation room after the treatment. The number of surviving acarids was investigated after 72 h, and the mortality was calculated.

Ctenocephalides felis = assay: Insecticidal test on Ctenocephalides felis (compound film in culture dish); details: 1 μg/cm^2; adult Ctenocephalides felis; after 72 h; 25° C.; read-out: insect mortality (Ctenocephalides felis)
Method: 4 mg of compounds to be tested were dissolved in 40 mL of acetone to obtain acetone solutions with a concentration of 100 mg/L. Bottom surfaces and side surfaces of culture dishes with an inner diameter of 5.3 cm were coated with 400 μL of the drug solutions, and when the acetone was volatilized, films of the compounds of the present disclosure were prepared on inner walls of the culture dishes. The inner walls of the culture dishes used were 40 cm^2, and a dose of the treatment drugs was 1 μg/cm^2. 10 adult Ctenocephalides felis (males and females were mixed) were placed in the culture dishes, and the culture dishes were covered and then stored in a constant-temperature room at 25° C. The number of dead insects was checked after 72 h, and the insect mortality was calculated. The test was repeated for 3 times. Test results: The insect mortality of compounds 1, 2, 3, 4, 5, 11, 12, 18, 32, 33, 34, 46, 60, 74, 88, 99, 101, 102, 104, 105, 108, 109, 110, 111, 113 and 114 is 70% or above.

Dermacentor variabilis = assay: Insecticidal test on Dermacentor variabilis (compound film in culture dish); details: 1 μg/cm^2, 1st nymphs, after 24 h, 25° C., read-out: insect mortality (Dermacentor variabilis)
Method: 4 mg of compounds to be tested were dissolved in 40 mL of acetone to obtain acetone solutions with a concentration of 100 mg/L. Bottom surfaces and side surfaces of 2 culture dishes with an inner diameter of 5.3 cm were coated with 400 μL of the drug solutions, and when the acetone was volatilized, films of the compounds of the present disclosure were prepared on inner walls of the culture dishes. The inner walls of the culture dishes used were 40 cm^2, and a dose of the treatment drugs was 1 μg/cm^2. 10 1st nymphs of Dermacentor variabilis (males and females were mixed) were placed in the culture dishes. The 2 culture dishes were combined, sealed with tape at a junction portion to prevent escape of the nymphs, and then stored in a constant-temperature room at 25° C. The number of dead insects was checked after 24 h, and the insect mortality was calculated. The test was repeated for 3 times. Test results: The insect mortality of compounds 1, 2, 3, 4, 5, 11, 12, 18, 32, 33, 34, 46, 60, 74, 88, 99, 101, 102, 104, 105, 108, 109, 110, 111, 113 and 114 is 70% or above.

[1] = parallel comparative experiment
[2] = 1.25 mg/L, parallel comparative experiment, read-out: Mortality (%, on 3rd day after administration) 1.25 mg/L
[3] = dose 1.25 mg/L, 3rd instar larvae, read-out: mortality against Plutella xylostella

SMILES | mortality at 1.25 µg/mL (Mythimna separata) [%] | mortality at 0.3125 µg/mL (Plutella xylostella; [1]) [%] | mortality at 0.625 µg/mL (Plutella xylostella; [1]) [%] | mortality at 1.25 µg/mL (Plutella xylostella; [2]) [%] | mortality at 1.25 µg/mL (Plutella xylostella; [3]) [%] | mortality at 1.25 µg/mL (Tetranychus cinnabarinus) [%] | mortality at 1 µg/cm2 (Ctenocephalides felis) [%] | mortality at 1 µg/cm2 (Dermacentor variabilis) [%]
N#CCCN(C(=O)c1cc(-c2cnn(-c3c(Cl)cc(C(F)(C(F)(F)F)C(F)(F)F)cc3Cl)c2)cnc1Cl)C1CC1 [Compound 5] | ≥ 90 | 100 | 100 | 100 | ≥ 90 | ≥ 90 | ≥ 70 | ≥ 70
N#CCN(C(=O)c1cc(-c2cnn(-c3c(Br)cc(C(F)(C(F)(F)F)C(F)(F)F)cc3OC(F)(F)F)c2)cnc1Cl)C1CC1 [Compound 74] | ≥ 90 |  |  |  | ≥ 90 | ≥ 90 | ≥ 70 | ≥ 70
N#CC1(N(C(=O)c2cc(-c3cnn(-c4c(Cl)cc(C(F)(C(F)(F)F)C(F)(F)F)cc4Cl)c3)cnc2Cl)C(=O)C2CC2)CC1 [Compound 113] | ≥ 90 | 100 | 100 | 100 | ≥ 90 | ≥ 90 | ≥ 70 | ≥ 70
O=C(c1cc(-c2cnn(-c3c(Cl)cc(C(F)(C(F)(F)F)C(F)(F)F)cc3Cl)c2)cnc1Cl)N(C(=O)C1CC1)C1CC1 [Compound 104] | ≥ 90 | 100 | 100 | 100 | ≥ 90 | ≥ 90 | ≥ 70 | ≥ 70
N#CCN(C(=O)c1cc(-c2cnn(-c3c(Br)cc(C(F)(C(F)(F)F)C(F)(F)F)cc3Br)c2)cnc1Cl)C1CC1 [Compound 18] | ≥ 90 |  |  |  | ≥ 90 | ≥ 90 | ≥ 70 | ≥ 70
N#CCN(C(=O)c1cc(-c2cnn(-c3c(Cl)cc(C(F)(C(F)(F)F)C(F)(F)F)cc3C(F)(F)F)c2)cnc1Cl)C1CC1 [Compound 60] | ≥ 90 |  |  |  | ≥ 90 | ≥ 90 | ≥ 70 | ≥ 70
N#CCCN(C(=O)c1cc(-c2cnn(-c3c(Cl)cc(C(F)(C(F)(F)F)C(F)(F)F)cc3Br)c2)cnc1Cl)C1CC1 [Compound 33] | ≥ 90 |  |  |  | ≥ 90 | ≥ 90 | ≥ 70 | ≥ 70
COCC(=O)N(C(=O)c1cc(-c2cnn(-c3c(Cl)cc(C(F)(C(F)(F)F)C(F)(F)F)cc3Cl)c2)cnc1Cl)C1CC1 [Compound 105] | ≥ 90 | 100 | 100 | 100 | ≥ 90 | ≥ 90 | ≥ 70 | ≥ 70
CC(C)C(=O)N(C(=O)c1cc(-c2cnn(-c3c(Cl)cc(C(F)(C(F)(F)F)C(F)(F)F)cc3Cl)c2)cnc1Cl)C1CC1 [Compound 102] | ≥ 90 |  |  |  | ≥ 90 | ≥ 90 | ≥ 70 | ≥ 70
N#CCN(C(=O)c1cc(-c2cnn(-c3c(Br)cc(C(F)(C(F)(F)F)C(F)(F)F)cc3C(F)(F)F)c2)cnc1Cl)C1CC1 [Compound 46] | ≥ 90 |  |  |  | ≥ 90 | ≥ 90 | ≥ 70 | ≥ 70
N#CCCCN(C(=O)c1cc(-c2cnn(-c3c(Cl)cc(C(F)(C(F)(F)F)C(F)(F)F)cc3Br)c2)cnc1Cl)C1CC1 [Compound 34] | ≥ 90 |  |  |  | ≥ 90 | ≥ 90 | ≥ 70 | ≥ 70
C=CCN(C(=O)c1cc(-c2cnn(-c3c(Cl)cc(C(F)(C(F)(F)F)C(F)(F)F)cc3Cl)c2)cnc1Cl)C1CC1 [Compound 1] | ≥ 90 | 93.3 | 100 | 100 | ≥ 90 | ≥ 90 | ≥ 70 | ≥ 70
